Results as given in patent US20240108740A1, “THERAPEUTIC COMPOSITIONS INCLUDING SPN10 AND USES THEREOF” (Stealth BioTherapeutics Inc., priority 2022, published 2024).
Residues, ends and D or L forms follow the SMILES beside them.

Tests used:
[1] = tested on: Human low density lipoprotein (LDL); test: Example 18: LDL oxidation (conjugated dienes at 234 nm); type: biochemical; details: 10 mM, 5 hours at 37° C.
Protocol: Human low density lipoprotein (LDL) will be prepared fresh from stored plasma. LDL oxidation will be induced catalytically by the addition of 10 mM […], and the formation of conjugated dienes will be monitored at 234 nm for 5 hours at 37° C. (B. Moosmann and C. Behl, Mol. Pharmacol. 61:260-268 (2002).

N2A cells = test: Example 26: mitochondrial membrane potential and ROS accumulation after t-BHP (TMRM, DCF); type: cell-based; details: 0.1 mM t-BHP, 6 hours
Protocol: N2A cells cultured in a glass dish will be treated with 0.1 mM t-BHP alone or in the presence of peptide conjugates (1 nM); aromatic-cationic peptides (an equivalent molar dose of aromatic-cationic peptide based on the concentration of the aromatic-cationic peptide administered in the peptide conjugate treatment group); SPN10(s) (an equivalent molar dose of SPN10 based on the concentration of SPN10 administered in the peptide conjugate treatment group) or SPN10(s) in combination with aromatic-cationic peptides (e.g., an equivalent molar dose of SPN10 based on the concentration of SPN10 administered in the peptide conjugate treatment group and an equivalent molar dose of aromatic-cationic peptide based on the concentration of aromatic-cationic peptide administered in the peptide conjugate treatment group) for 6 hours. Cells will then be loaded with 10 μM dichlorofluorescin (DCF) (ex/em=485/530) for 30 minutes at 37° C., 5% CO2. Cells will be washed 3 times with HBSS, stained with 20 nM of Mitotracker TMRM (ex/em=550/575 nm) for 15 minutes at 37° C., and examined by confocal laser scanning microscopy.

Hairless mice = test: Example 50: sunburn by excessive UV radiation; type: in vivo, mouse; details: intravenously twice per day for seven days
From the text: Hairless mice, with skin characteristics similar to humans, will be exposed to excessive UV radiation over the course of a week. […] Parameters measured will include wound contraction, re-epithelialization distance, cellularity, and collagen organization. Ki67 proliferation antigen will be assessed, as well as TUNEL and caspase-3 activation. Blood flow will be measured by […] mapping.

In the case of `N=C(N)NCCC[C@H](NC(=O)[C@@H](N)Cc1c[nH]c2ccccc12)C(=O)N[C@@H](Cc1c[nH]c2ccccc12)C(=O)N[C@@H](CCCCN)C(N)=O` [SPN10, H-L-Trp-L-Arg-L-Trp-L-Lys-NH2] (H-WRWK-NH2), the “rate of LDL oxidation” value [1] was “dose-dependently inhibit the rate of LDL oxidation”, the “ROS accumulation (DCF)” value (N2A cells) was “reduce ROS accumulation” and the “mitochondrial depolarization (TMRM)” value (N2A cells) was “prevent mitochondrial depolarization”. For the same compound, the “wound healing and progression of sunburn injuries” value (Hairless mice) was “accelerate wound healing and attenuate the progression of sunburn injuries”.
